Laboratory results published in patent publication US5783449A (priority 1996, dated 1998).

Assays:
[1] = in vivo
From the text: (§1) To verify the results, after ethanol consumption, BAC levels were repeatedly measured by INTOXIMETER EC/IR 3000, until two successive zero BAC measurements were obtained. […] A special electrochemical membrane measured oxidation by transdermal ethanol. The resulting current measured is expressed in micro Amperes (μA) and was automatically multiplied by 35 for TAS#37; by 40 for TAS#34, TAS#39, or by 45 for TAS#33 depending on type of construction for the device.

[2] = in vivo; remark: listed apart in the source
Procedure: (§2) The BAC readings used in tables 1 and 2 were obtained using breath samples taken with the INTOXIMETER EC/IR 3000 made by Intoximeters, Inc. of St. Louis, Mo. This device has a rated accuracy of ±0.001 (1 mg/dl). The machine was reprogrammed to increase ethanol values by five percent from factory settings to more accurately reflect actual BAC.

clinical = details: in vivo
From the text: Even though ethanol elimination begins at very outset of consumption, formally the process breaks out from an apex into a pharmacokinetical curve--the break point of a neutralizing reaction against extreme absorption-distribution action.
AUCabs-distr is the absorption-distribution of ethanol and is equal to the AUC under the ascending part of the curve;
AUCpostabs +AUCdistr is a sum of the postabsorption and distribution of ethanol and is equal to the AUC between the ascending and descending part of the plotted curve. Because most pharmacokinetical cases have a triangle-like shape for the curve, it obviously has no value. However, if the value occurs (in a case with a trapezium-like shape for the curve) it disregards from calculation, because proportional representation for this internal rectangular-like composite AUC is the same as the Index-K value;
and AUCelim is the elimination of ethanol and is equal to the AUC under the descending part of the pharmacokinetical curve.
as §1
BAC tests were conducted on 83 volunteer individuals, 48 of whom were non-alcoholic males, 27 of whom were non-alcoholic females and 8 of whom were alcoholic males.
This dose was divided into three equal parts.
as §2

[3] = test system: Microsomal Ethanol-Oxidation System (MEOS); details: human body; stated as well known; cited from earlier work

Index-K (range over methods) [1]: 1.9-1.97
variation in the amplitude of the curves [1]: 2.7 fold
variation of the elimination time [1]: 1.9 fold
variation of the time to peak [1]: 1.7 fold
blood/breath ratio [2]: 0.994
Time to peak (clinical; human, po): 66 '
peak in the BAC (clinical; human, po): 68.2 (s.d.=8.98)
Cmax (clinical; human, po, peak in the BAC): 697 µg/mL
ratio of Index-K between alcoholic and non-alcoholic drinkers (clinical): about twice
Structure (SMILES): CCO [alcohol, ethanol]
fraction of consumed alcohol destroyed by MEOS [3]: approximately one-fifth
